Test results: patent US20020051978A1, “Methods and compositions for the identification, assessment, prevention and therapy of human cancers” (priority 2000, published 2002)

System: 60 cancer cell lines (NCI 60 cancer cell line series)
Assay: NCI-DTP in vitro cancer screen, sulforhodamine B (SRB) growth inhibition, 48 hour exposure
Assay type: cell-based, human
Design: key to sensitivity class Ovarian OVCAR-8 CL6005 / sensitivity class Ovarian SK-OV-3 CL6011 / sensitivity class Prostate DU-145 CL11003 / sensitivity class NSCLC NCI-H522 CL1003 / sensitivity class Ovarian IGROV1 CL6010 / sensitivity class Ovarian OVCAR-4 CL6002 / sensitivity class Prostate PC-3(I) CL11001 / sensitivity class Renal A498 CL9013 / sensitivity class Renal SN12C CL9008: sensitivity class: 1 = Low, 2 = Medium, 3 = High
How it was run: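 Sixty NCI-DTP cancer lines plated at line-specific densities, dosed on day 1 in duplicate with 5 concentrations at ten-fold intervals. After 48 h exposure, cell mass read by SRB staining; GI50 (50% growth inhibition) taken from dose-response curves and expressed as -log GI50.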

Sc1ncnc2nc[nH]c12 [6-mercaptopurine] was tested, and the “classification of cell line as Low(1), Medium(2) or High(3) sensitivity to compound” value (from here on “classification of cell line”) (Breast BT-549 (CL5013)) was 1, the “classification of cell line” value (Breast HS-578T CL5006) was 1 and the “classification of cell line” value (Breast MCF7(I) (CL5001)) was 2. For the same compound, the “classification of cell line” value (Breast MCF7/ADRr (CL5002)) was 2, the “classification of cell line” value (Breast MDA-MB-231 CL5005) was 1 and the “classification of cell line” value (Breast MDA-MB-435 (CL5011)) was 2. The “classification of cell line” value (Breast MDA-N CL5012) was 2, the “classification of cell line” value (Breast T-47D (CL5014)) was 2 and the “classification of cell line” value (CNS SF-268 CL12014) was 2. The “classification of cell line” value (CNS SF-295 CL12015) was 2, the “classification of cell line” value (CNS SF-539 CL12016) was 2 and the “classification of cell line” value (CNS SNB-19 (CL12002)) was 1. For the same compound, the “classification of cell line” value (CNS SNB-75(I) CL12005) was 2, the “classification of cell line” value (CNS U251(I) CL12009) was 2 and the “classification of cell line” value (Colon COLO-250 CL4010) was 2. For the same compound, the “classification of cell line” value (Colon HCC-2998 (CL4002)) was 2, the “classification of cell line” value (Colon HCT-15 CL4015) was 2 and the “classification of cell line” value (Colon HCT-116 (CL4003)) was 2. For the same compound, the “classification of cell line” value (Colon HT29(I) CL4001) was 2, the “classification of cell line” value (Colon KM12 (CL4017)) was 2 and the “classification of cell line” value (Colon SW-620 (CL4009)) was 2. The “classification of cell line” value (Leukemia CCRF-CEM(I) (CL7003)) was 3, the “classification of cell line” value (Leukemia HL-60(I) (CL7008)) was 2 and the “classification of cell line” value (Leukemia K562(I) CL7005) was 3. The “classification of cell line” value (Leukemia MOLT-4 (CL7006)) was 2, the “classification of cell line” value (Leukemia RPMI-8226(I) (CL7010)) was 2 and the “classification of cell line” value (Leukemia SR CL7019) was 3. The “classification of cell line” value (Melanoma LOX IMVI CL10001) was 3, the “classification of cell line” value (Melanoma M14 (CL10014)) was 3 and the “classification of cell line” value (Melanoma MALME-3M CL10002) was 2. The “classification of cell line” value (Melanoma SK-MEL-2 (CL10005)) was 2, the “classification of cell line” value (Melanoma SK-MEL-5 (CL10007)) was 2 and the “classification of cell line” value (Melanoma SK-MEL-28 (CL10008)) was 1. The “classification of cell line” value (Melanoma UACC-62 (CL10020)) was 2, the “classification of cell line” value (Melanoma UACC-257 (CL10021)) was 1 and the “classification of cell line” value (NSCLC A549/ATCC (CL1004)) was 1. For the same compound, the “classification of cell line” value (NSCLC EKVX (CL1008)) was 1, the “classification of cell line” value (NSCLC HOP-62 (CL1026)) was 2 and the “classification of cell line” value (NSCLC HOP-92 (CL1029)) was 2. For the same compound, the “classification of cell line” value (NSCLC NCI-H226 CL1013) was 1, the “sensitivity class NSCLC NCI-H23(I) CL1001” value (cell line NSCLC NCI-H23(I), CL1001) was 2 and the “sensitivity class NSCLC NCI-H332M CL1017” value (cell line NSCLC NCI-H332M, CL1017) was 2. The “sensitivity class NSCLC NCI-H460 CL1021” value (cell line NSCLC NCI-H460, CL1021) was 2, the “sensitivity class NSCLC NCI-H522 CL1003” value (cell line NSCLC NCI-H522, CL1003) was 2 and the “sensitivity class Ovarian IGROV1 CL6010” value (cell line Ovarian IGROV1, CL6010) was 2. For the same compound, the “sensitivity class Ovarian OVCAR-3 CL6001” value (cell line Ovarian OVCAR-3, CL6001) was 3, the “sensitivity class Ovarian OVCAR-4 CL6002” value (cell line Ovarian OVCAR-4, CL6002) was 2 and the “sensitivity class Ovarian OVCAR-5 CL6003” value (cell line Ovarian OVCAR-5, CL6003) was 2. The “sensitivity class Ovarian OVCAR-8 CL6005” value (cell line Ovarian OVCAR-8, CL6005) was 2, the “sensitivity class Ovarian SK-OV-3 CL6011” value (cell line Ovarian SK-OV-3, CL6011) was 3 and the “sensitivity class Prostate DU-145 CL11003” value (cell line Prostate DU-145, CL11003) was 2. For the same compound, the “sensitivity class Prostate PC-3(I) CL11001” value (cell line Prostate PC-3(I), CL11001) was 2, the “sensitivity class Renal 786-O CL9018” value (cell line Renal 786-O, CL9018) was 2 and the “sensitivity class Renal A498 CL9013” value (cell line Renal A498, CL9013) was 1. For the same compound, the “sensitivity class Renal ACHN CL9023” value (cell line Renal ACHN, CL9023) was 2, the “sensitivity class Renal CAKI-1 CL9015” value (cell line Renal CAKI-1, CL9015) was 2 and the “sensitivity class Renal RXF-393 CL9016” value (cell line Renal RXF-393, CL9016) was 1. For the same compound, the “sensitivity class Renal SN12C CL9008” value (cell line Renal SN12C, CL9008) was 1, the “sensitivity class Renal TK10 CL9024” value (cell line Renal TK10, CL9024) was 2 and the “sensitivity class Renal UO-31 CL9004” value (cell line Renal UO-31, CL9004) was 2.
